Source: ChEMBL document CHEMBL3580594, “Synthesis and biological evaluation of 4-substituted fluoronucleoside analogs for the treatment of hepatitis B virus infection” (J Med Chem, 2015)

Assays:
Hepatitis B virus [1] = assay: Antiviral activity against Hepatitis B virus in HepG2.2.15 cells assessed as inhibition of extracellular viral DNA replication at 5 uM after 9 days by real-time FQ-PCR analysis; type: functional; conditions: HepG2 2.2.15, 216 h
Mus musculus [2] = assay: Toxicity in KM mouse assessed as micronucleus frequency in bone marrow polychromatic erythrocyte at 80 mg/kg, po single dose after 48 hrs (reference value: 2.20 +/- 0.84 %); type: organism-based; conditions: in vivo
Hepatitis B virus [3] = assay: Antiviral activity against Hepatitis B virus in HepG2.2.15 cells assessed as inhibition of intracellular viral DNA replication at 1 uM after 9 days by real-time FQ-PCR analysis; type: functional; conditions: HepG2 2.2.15, 216 h
Duck hepatitis B virus [4] = assay: Antiviral activity against duck Hepatitis B virus infected in duck assessed as inhibition of viral DNA replication in serum at 1 mg/kg/day, po treatment initiated at day 10 after infection relative to control; type: functional; conditions: 240 h
Duck hepatitis B virus [5] = assay: Antiviral activity against duck Hepatitis B virus infected in duck assessed as inhibition of viral DNA replication in liver at 1 mg/kg/day, po treatment initiated at day 5 after infection relative to control; type: functional; conditions: 120 h
Mus musculus [6] = assay: Acute toxicity in KM mouse assessed as adverse effect at 200 mg/kg, iv suspended in normal saline; type: organism-based; conditions: in vivo
Hepatitis B virus [7] = assay: Antiviral activity against Hepatitis B virus in HepG2.2.15 cells assessed as inhibition of intracellular viral DNA replication at 5 uM after 9 days by real-time FQ-PCR analysis; type: functional; conditions: HepG2 2.2.15, 216 h
Duck hepatitis B virus [8] = assay: Antiviral activity against duck Hepatitis B virus infected in po dosed duck assessed as inhibition of viral DNA replication in liver; type: functional, organism-based
Duck hepatitis B virus [9] = assay: Antiviral activity against duck Hepatitis B virus infected in duck assessed as inhibition of viral DNA replication in liver at 0.2 mg/kg/day, po treatment initiated at day 10 after infection relative to control; type: functional; conditions: 240 h
Hepatitis B virus [10] = assay: Antiviral activity against Hepatitis B virus in HepG2.2.15 cells assessed as inhibition of intracellular viral DNA replication at 0.2 uM after 6 days by real-time FQ-PCR analysis; type: functional; conditions: HepG2 2.2.15, 144 h
Mus musculus [11] = assay: Toxicity in KM mouse assessed as peripheral WBC number in blood per liter at 80 mg/kg, po single dose after 48 hrs (reference value: 11.10 x 2.69/L x 10^-9); type: organism-based; conditions: in vivo
Duck hepatitis B virus [12] = assay: Antiviral activity against duck Hepatitis B virus infected in duck assessed as inhibition of viral DNA replication in serum at 0.2 mg/kg/day, po treatment initiated at day 5 after infection relative to control; type: functional; conditions: 120 h
Liver microsome = assay: Drug metabolism in rat liver microsomes assessed as 1-((2R,3S,4R,5R)-5-azido-3-fluoro-4-hydroxy-5-(hydroxymethyl)tetrahydrofuran-2-yl)-4-(2-hydroxycyclopropylamino)pyrimidin-2(1H)-one formation after 2 hrs by LC-MS/MS analysis; type: ADME
Mus musculus [13] = assay: Acute toxicity in KM mouse assessed as mortality at 3 g/kg, iv suspended in 0.5% CMC/Na solution after 14 days; type: organism-based; conditions: in vivo, 3000 mg/kg, 336 h
Hepatitis B virus [14] = assay: Antiviral activity against Hepatitis B virus in HepG2.2.15 cells assessed as inhibition of extracellular viral DNA replication at 0.2 uM after 6 days by real-time FQ-PCR analysis; type: functional; conditions: HepG2 2.2.15, 144 h
Duck hepatitis B virus [15] = assay: Antiviral activity against duck Hepatitis B virus infected in duck assessed as inhibition of viral DNA replication in liver at 1 mg/kg/day, po treatment initiated at day 10 after infection relative to control; type: functional; conditions: 240 h
Duck hepatitis B virus [16] = assay: Antiviral activity against duck Hepatitis B virus infected in duck assessed as inhibition of viral DNA replication in liver at 0.2 mg/kg/day, po measured after 3 days of treatment withdrawal; type: functional; conditions: 72 h
Duck hepatitis B virus [17] = assay: Antiviral activity against duck Hepatitis B virus infected in duck assessed as inhibition of viral DNA replication in serum at 0.2 mg/kg/day, po measured after 3 days of treatment withdrawal; type: functional; conditions: 72 h
Duck hepatitis B virus [18] = assay: Antiviral activity against duck Hepatitis B virus infected in duck assessed as inhibition of viral DNA replication in serum at 0.04 mg/kg/day, po measured after 3 days of treatment withdrawal; type: functional; conditions: 72 h
Hepatitis B virus [19] = assay: Antiviral activity against Hepatitis B virus in HepG2.2.15 cells assessed as inhibition of extracellular viral DNA replication at 5 uM after 3 days by real-time FQ-PCR analysis; type: functional; conditions: HepG2 2.2.15, 72 h
Mus musculus [20] = assay: Acute toxicity in KM mouse assessed as death at 400 mg/kg, iv suspended in normal saline; type: organism-based; conditions: in vivo
Hepatitis B virus [21] = assay: Antiviral activity against Hepatitis B virus in HepG2.2.15 cells assessed as inhibition of intracellular viral DNA replication at 0.2 uM after 3 days by real-time FQ-PCR analysis; type: functional; conditions: HepG2 2.2.15, 72 h
Rattus norvegicus [22] = organism: Rattus norvegicus; assay: Drug metabolism in rat urine sample assessed as 4-amino-1-((2R,3S,4R,5R)-5-azido-3-fluoro-4-hydroxy-5-(hydroxymethyl)tetrahydrofuran-2-yl)pyrimidin-2(1H)-one formation by LC-MS/MS analysis; type: ADME, organism-based; conditions: in vivo
Mus musculus [23] = assay: Acute toxicity in KM mouse assessed as listlessness at 300 mg/kg, iv suspended in normal saline; type: organism-based; conditions: in vivo
Rattus norvegicus [24] = organism: Rattus norvegicus; assay: Drug metabolism in rat urine sample assessed as 1-((2R,3S,4R,5R)-5-azido-3-fluoro-4-hydroxy-5-(hydroxymethyl)tetrahydrofuran-2-yl)-4-(2,3-dihydroxycyclopropylamino)pyrimidin-2(1H)-one formation by LC-MS/MS analysis; type: ADME, organism-based; conditions: in vivo
Duck hepatitis B virus [25] = assay: Antiviral activity against duck Hepatitis B virus infected in duck assessed as inhibition of viral DNA replication in liver at 0.04 mg/kg/day, po measured after 3 days of treatment withdrawal; type: functional; conditions: 72 h
Mus musculus [26] = assay: Toxicity in KM mouse assessed as micronucleus frequency in bone marrow polychromatic erythrocyte at 5 mg/kg, po single dose after 48 hrs (reference value: 1.20 +/- 0.45 %); type: organism-based; conditions: in vivo
Mus musculus [27] = assay: Toxicity in KM mouse assessed as peripheral WBC number in blood per liter at 10 mg/kg/day, po 5 doses (reference value: 7.47 +/- 33.77 /L x 10^-9 cells); type: organism-based; conditions: in vivo
Duck hepatitis B virus [28] = assay: Antiviral activity against duck Hepatitis B virus infected in duck assessed as inhibition of viral DNA replication in liver at 0.2 mg/kg/day, po treatment initiated at day 5 after infection relative to control; type: functional; conditions: 120 h
Hepatitis B virus [29] = assay: Antiviral activity against Hepatitis B virus in HepG2.2.15 cells assessed as inhibition of extracellular viral DNA replication at 1 uM after 9 days by real-time FQ-PCR analysis; type: functional; conditions: HepG2 2.2.15, 216 h
Hepatitis B virus [30] = assay: Antiviral activity against Hepatitis B virus in HepG2.2.15 cells assessed as inhibition of intracellular viral DNA replication at 1 uM after 6 days by real-time FQ-PCR analysis; type: functional; conditions: HepG2 2.2.15, 144 h
Hepatitis B virus [31] = assay: Antiviral activity against Hepatitis B virus in HepG2.2.15 cells assessed as inhibition of intracellular viral DNA replication at 0.2 uM after 9 days by real-time FQ-PCR analysis; type: functional; conditions: HepG2 2.2.15, 216 h
Duck hepatitis B virus [32] = assay: Antiviral activity against duck Hepatitis B virus infected in duck assessed as inhibition of viral DNA replication in serum at 1 mg/kg/day, po measured after 3 days of treatment withdrawal; type: functional; conditions: 72 h
Duck hepatitis B virus [33] = assay: Antiviral activity against duck Hepatitis B virus infected in duck assessed as inhibition of viral DNA replication in serum at 0.04 to 20 mg/kg, po; type: functional, organism-based; conditions: TDE = time-dependent effect

**Q.** Which results are given for `[N-]=[N+]=N[C@]1(CO)O[C@@H](n2ccc(NC3CC3)nc2=O)[C@@H](F)[C@@H]1O`?
**A.** inhibition at 5 µM (Hepatitis B virus [1]): 87.6%; Activity (Mus musculus [2]): 1.8%; inhibition at 1 µM (Hepatitis B virus [3]): 56.9%; inhibition in vivo at 1 mg/kg/day (Duck hepatitis B virus [4]): 74.2%; inhibition in vivo at 1 mg/kg/day (Duck hepatitis B virus [5]): 64.1%; Activity (Mus musculus [6]): Non-toxic; inhibition at 5 µM (Hepatitis B virus [7]): 68.2%; inhibition (Duck hepatitis B virus [8]): Dose-dependent effect; inhibition in vivo at 0.2 mg/kg/day (Duck hepatitis B virus [9]): 68.7%; inhibition at 0.2 µM (Hepatitis B virus [10]): 31.7%; Activity (Mus musculus [11]): 8.26 ×10⁹ /L; inhibition in vivo at 0.2 mg/kg/day (Duck hepatitis B virus [12]): 62.5%; Drug metabolism (Liver microsome): metabolite_detected; Activity (Mus musculus [13]): Non-toxic; inhibition at 0.2 µM (Hepatitis B virus [14]): 52%; inhibition in vivo at 1 mg/kg/day (Duck hepatitis B virus [15]): 82.1%; inhibition in vivo at 0.2 mg/kg/day (Duck hepatitis B virus [16]): 63.1%; inhibition in vivo at 0.2 mg/kg/day (Duck hepatitis B virus [17]): 66%; inhibition in vivo at 0.04 mg/kg/day (Duck hepatitis B virus [18]): 47.1%; inhibition at 5 µM (Hepatitis B virus [19]): 53%; Activity (Mus musculus [20]): Toxic; inhibition at 0.2 µM (Hepatitis B virus [21]): 20.6%; Drug metabolism (Rattus norvegicus [22]): metabolite_detected; Activity (Mus musculus [23]): Toxic; Drug metabolism (Rattus norvegicus [24]): metabolite_detected; inhibition in vivo at 0.04 mg/kg/day (Duck hepatitis B virus [25]): 58.8%; Activity (Mus musculus [26]): 1.2%; Activity (Mus musculus [27]): 8.09 ×10⁹ /L; inhibition in vivo at 0.2 mg/kg/day (Duck hepatitis B virus [28]): 52.7%; inhibition at 1 µM (Hepatitis B virus [29]): 76.2%; inhibition at 1 µM (Hepatitis B virus [30]): 49.5%; inhibition at 0.2 µM (Hepatitis B virus [31]): 46.5%; inhibition in vivo at 1 mg/kg/day (Duck hepatitis B virus [32]): 69.9%; inhibition (Duck hepatitis B virus [33]): tde
